According to US6458832B1, “Carboplatin analogs for cancer treatment” (Unitech Pharmaceuticals, Inc., priority 1999, dated 2002):

Tested on: human squamous carcinoma clone cancer cell line (SCC-1)
Test: In-vitro effect on SCC-1 cell growth (cell viability by Coulter Counter)
Format: cell-based
Settings: for Cell Count/mL: SCC-1 cells, two days after treatment at 37° C., untreated (0 μM) 5.70 × 10^5
Experimental: The in-vitro effects of sample #01 1700 on human squamous carcinoma clone cancer cell line (SCC-1).
All cell culture plasticware was purchased from Fisher. Media and antibiotics were purchased from Gibco and Sigma.
Cell viability using a Coulter Counter is used to quantify toxicity. SCC-^1 cells are grown in MEM media containing 10% Fetal Bovine Serum, 100 units/ml penicillin, 100 1μ/ml streptomycin, and 2.5 μg/ml fungizone at 37° C. in a 5% CO2 incubator. A 6 well dish is inoculated to 2.0×10^5 cells/well in a total volume of media of 2 ml. Incubation occurs overnight and the cells are ready for treatment the next day.
Stock solution of sample #01 1700 is sterile filtered with a 0.22 μm low protein binding syringe filter. Dilutions are made in fresh MEM-10% FBS.
Two days after treatment at 37° C., cells are harvested and quantified using a Coulter Counter. To harvest, all media is removed and 1 ml of 1× trypsin solution is added per well. Tryspin is in the well for approximately 5 minutes at 37° C. After 5 minutes, 1 ml of fresh MEM-10% FBS is added per well. Upon vigorous mixing to ensure breakup of aggregate cells, dilutions are made in Isoton®II ready for cell counts. Each well is counted twice. Thus, duplicate wells plus duplicate counts yield 4 cell counts per parameter above.

## CC(N)C(=O)O.CC(N)C(=O)O.[Cl][Pt][Cl] (stereo not drawn) [#011700, PtCl2[CH3CH(NH)2COOH]2]
20 μM #011700
  Cell Count/mL: 600000 mL⁻¹
30 μM #011700
  Cell Count/mL: 580000 mL⁻¹
40 μM #011700
  Cell Count/mL: 520000 mL⁻¹
50 μM #011700
  Cell Count/mL: 440000 mL⁻¹
60 μM #011700
  Cell Count/mL: 380000 mL⁻¹
20-60 μM, two days after treatment
  inhibition of the growth of SCC-1 cells in-vitro: shows inhibition of the growth
